In ChEMBL document CHEMBL1130061, “Discovery and biological activity of orally active peptidyl trifluoromethyl ketone inhibitors of human neutrophil elastase” (J Med Chem, 1997):
Numbered stars: 1 amine (or outer) side, 2 acyl side, 3 side chain; on linkers, the order of the positions; unused ones are H or OH. Square brackets hold non-standard residues; d marks the D form. Peptide text beside a SMILES is read from it. * marks the point of attachment. ξ: configuration not given here. 4Abz = Nc1ccc(C(=O)O)cc1; CO = O=C([*:1])[*:2]; ξV = CC(C)C(N)C(=O)O; NHPh = c1ccc(N*)cc1; ξP = O=C(O)C1CCCN1; CF3 = FC(F)(F)*

Columns and labels:
Mesocricetus auratus [1] = species on record: Mesocricetus auratus; assay: Reduction in wet lung weight relative to the body weight in hamsters
Mesocricetus auratus [2] = assay: Oral administration at a dose of 37.5 mg/kg 30 min prior to HNE and reduction in the number of white blood cells was reported
Neutrophil elastase = biological target: T1, Neutrophil elastase (Homo sapiens, UniProt P08246); assay: Inhibitory activity against Human Neutrophil Elastase by HNE-catalyzed hydrolysis of MeO-Suc-Ala-Ala-Pro-Val-pNa
T1 sequence (P08246 whole entry): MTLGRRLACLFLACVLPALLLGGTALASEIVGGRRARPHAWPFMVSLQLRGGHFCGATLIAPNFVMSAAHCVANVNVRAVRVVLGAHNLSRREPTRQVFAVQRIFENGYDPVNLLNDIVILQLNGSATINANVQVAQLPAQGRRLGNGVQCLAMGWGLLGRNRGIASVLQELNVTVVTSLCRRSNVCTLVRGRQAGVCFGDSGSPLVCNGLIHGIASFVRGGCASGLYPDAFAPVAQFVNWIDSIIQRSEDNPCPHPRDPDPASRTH

Mesocricetus auratus [3] = assay: Oral administration at a dose of 37.5 mg/kg 30 min prior to HNE (100 mg/hamster) and reduction in the number of white blood cells was reported

SMILES | Lw/Bw (Mesocricetus auratus [1]) | Reduction (Mesocricetus auratus [2]) | Ki (Neutrophil elastase) | Reduction (Mesocricetus auratus [3])
CC(C)[C@H](NC(=O)OCc1ccccc1)C(=O)N1CCC[C@H]1C(=O)N[C@H](C(=O)C(F)(F)F)C(C)C (HELM PEPTIDE1{[O=C(OCc1ccccc1)[*:2]].V.P.V.[FC(F)(F)[*:1]]}$$$$V2.0) | 53 | 38% | – | –
COc1ccc(S(=O)(=O)N[C@H](C(=O)N2CCCC2C(=O)NC(C(=O)C(F)(F)F)C(C)C)C(C)C)cc1 (stereo partly specified) | 29 | – | 8 nM | -42%
CC(C)C(NC(=O)C1CCCN1C(=O)[C@@H](NS(=O)(=O)c1c(F)c(F)c(F)c(F)c1F)C(C)C)C(=O)C(F)(F)F (stereo partly specified) | -24 | 27% | 1.6 nM | –
CC(C)[C@H](NC(=O)c1ccccc1)C(=O)N1CCC[C@H]1C(=O)N[C@H](C(=O)C(F)(F)F)C(C)C (HELM PEPTIDE1{[O=C(c1ccccc1)[*:2]].V.P.V.[FC(F)(F)[*:1]]}$$$$V2.0) | 62 | – | 6.8 nM | -7%
COc1cccc(OC)c1C(=O)N[C@H](C(=O)N1CCCC1C(=O)NC(C(=O)C(F)(F)F)C(C)C)C(C)C (stereo partly specified) | 20 | 177% | 15 nM | –
CC(C)[C@H](NS(=O)(=O)c1ccccc1)C(=O)N1CCC[C@H]1C(=O)N[C@H](C(=O)C(F)(F)F)C(C)C | 29 | – | 14 nM | -48%
CC(C)C(NC(=O)c1ccc(C(=O)NS(=O)(=O)c2ccc(Br)cc2)cc1)C(=O)N1CCC[C@H]1C(=O)N[C@H](C(=O)C(F)(F)F)C(C)C (stereo partly specified) | -0.5 | 30% | – | –
COC(=O)c1ccc(C(=O)N[C@H](C(=O)N2CCCC2C(=O)NC(C(=O)C(F)(F)F)C(C)C)C(C)C)cc1 (stereo partly specified) | 49 | 56% | 1.8 nM | –
CC(=O)Oc1cc(OC(C)=O)cc(C(=O)N[C@H](C(=O)N2CCCC2C(=O)NC(C(=O)C(F)(F)F)C(C)C)C(C)C)c1 (stereo partly specified) | – | – | 60 nM | -12%
CCCN(CC(=O)N[C@H](C(=O)N1CCC[C@H]1C(=O)N[C@H](C(=O)C(F)(F)F)C(C)C)C(C)C)C(C)=O (HELM PEPTIDE1{[ac].[CCCN(CC(=O)[*:2])[*:1]].V.P.V.[FC(F)(F)[*:1]]}$$$$V2.0) | 24 | 78% | 2 nM | –
CC(C)C(NC(=O)C1CCCN1C(=O)[C@@H](NC(=O)c1cc2ccccc2cc1C(=O)O)C(C)C)C(=O)C(F)(F)F (stereo partly specified) | 23 | 53% | 1.7 nM | –
CC(C)C(NC(=O)C1CCCN1C(=O)[C@@H](NS(=O)(=O)c1ccc(Cl)cc1)C(C)C)C(=O)C(F)(F)F (stereo partly specified) | -41 | 7% | 3.3 nM | –
CC(C)C(NC(=O)C1CCCN1C(=O)[C@@H](NC(=O)CCC(=O)NS(=O)(=O)c1cccc2ccccc12)C(C)C)C(=O)C(F)(F)F (stereo partly specified) | -80 | – | 6.1 nM | -212%
COc1ccc(C(=O)N[C@H](C(=O)N2CCCC2C(=O)NC(C(=O)C(F)(F)F)C(C)C)C(C)C)cc1OC (stereo partly specified) | 66 | 46% | 1.1 nM | –
COC(=O)c1cc(C(=O)N[C@H](C(=O)N2CCCC2C(=O)NC(C(=O)C(F)(F)F)C(C)C)C(C)C)cc(C(=O)OC)c1 (stereo partly specified) | 6 | 6% | 11 nM | –
CC(C)C(NC(=O)C1CCCN1C(=O)[C@@H](NC(=O)Nc1ccc(C(=O)O)cc1)C(C)C)C(=O)C(F)(F)F (stereo partly specified) ({4Abz-CO}-Val-[ξP]-[ξV]-CF3) | -1 | 48% | 10 nM | –
CC(C)[C@H](NC(=O)c1cccnc1)C(=O)N1CCC[C@H]1C(=O)N[C@H](C(=O)C(F)(F)F)C(C)C (HELM PEPTIDE1{[O=C(c1cccnc1)[*:2]].V.P.V.[FC(F)(F)[*:1]]}$$$$V2.0) | -6 | 23% | 7.8 nM | –
CC(=O)N[C@H](C(=O)N1CCC[C@H]1C(=O)N[C@H](C(=O)C(F)(F)F)C(C)C)C(C)C (HELM PEPTIDE1{[ac].V.P.V.[FC(F)(F)[*:1]]}$$$$V2.0) | 8 | – | 45 nM | -120%
CC(C)C(NC(=O)C1CCCN1C(=O)[C@@H](NC(=O)c1ccc2ccccc2c1)C(C)C)C(=O)C(F)(F)F (stereo partly specified) | 43 | 73% | 0.87 nM | –
CC(C)C(NC(=O)C1CCCN1C(=O)[C@@H](NS(=O)(=O)c1ccc2ccccc2c1)C(C)C)C(=O)C(F)(F)F (stereo partly specified) | – | 20% | 2.7 nM | –
CC(=O)N(CC(=O)N[C@H](C(=O)N1CCC[C@H]1C(=O)N[C@H](C(=O)C(F)(F)F)C(C)C)C(C)C)Cc1ccccc1 (HELM PEPTIDE1{[ac].[O=C(CN(Cc1ccccc1)[*:1])[*:2]].V.P.V.[FC(F)(F)[*:1]]}$$$$V2.0) | 20 | 36% | 0.96 nM | –
CC(C)C(NC(=O)C1CCCN1C(=O)[C@@H](NC(=O)c1ccc(Oc2ccccc2)cc1)C(C)C)C(=O)C(F)(F)F (stereo partly specified) | 31 | 78% | 0.41 nM | –
Cc1ccc(C(=O)N[C@H](C(=O)N2CCC[C@H]2C(=O)N[C@H](C(=O)C(F)(F)F)C(C)C)C(C)C)cc1C | 75 | 55% | 1 nM | –

SMILES | Lw/Bw (Mesocricetus auratus [1]) | Reduction (Mesocricetus auratus [2]) | Ki (Neutrophil elastase) | Reduction (Mesocricetus auratus [3])
CC(C)C(NC(=O)C1CCCN1C(=O)[C@@H](NC(=O)c1ccc(C(=O)NS(C)(=O)=O)cc1)C(C)C)C(=O)C(F)(F)F (stereo partly specified) | -9 | 43% | 4.2 nM | –
CC(C)[C@H](NC(=O)Oc1ccc(F)cc1)C(=O)N1CCC[C@H]1C(=O)N[C@H](C(=O)C(F)(F)F)C(C)C | 63 | – | 0.63 nM | -67%
CC(C)[C@H](NC(=O)c1c[nH]cn1)C(=O)N1CCC[C@H]1C(=O)N[C@H](C(=O)C(F)(F)F)C(C)C | -42 | – | 63 nM | -267%
CC(C)[C@H](NC(=O)c1ccc(F)cc1)C(=O)N1CCC[C@H]1C(=O)N[C@H](C(=O)C(F)(F)F)C(C)C | 44 | 22% | 2.9 nM | –
CC(C)C(NC(=O)C1CCCN1C(=O)[C@@H](NC(=O)c1cc(C(=O)O)cc(C(=O)O)c1)C(C)C)C(=O)C(F)(F)F (stereo partly specified) | -45 | – | 43 nM | -105%
CSc1ccc(C(=O)N[C@H](C(=O)N2CCCC2C(=O)NC(C(=O)C(F)(F)F)C(C)C)C(C)C)cc1 (stereo partly specified) | 20 | 36% | 2.3 nM | –
CC(C)[C@H](NC(=O)c1ccncc1)C(=O)N1CCC[C@H]1C(=O)N[C@H](C(=O)C(F)(F)F)C(C)C | -15 | – | 3.8 nM | -45%
CC(C)c1cc(C(C)C)c(S(=O)(=O)N[C@H](C(=O)N2CCCC2C(=O)NC(C(=O)C(F)(F)F)C(C)C)C(C)C)c(C(C)C)c1 (stereo partly specified) | -17 | – | 3.2 nM | -186%
CC(C)[C@H](NC(=O)c1ccc(O)cc1)C(=O)N1CCC[C@H]1C(=O)N[C@H](C(=O)C(F)(F)F)C(C)C | 35 | 28% | 3.9 nM | –
CC(=O)Nc1ccc(S(=O)(=O)N[C@H](C(=O)N2CCCC2C(=O)NC(C(=O)C(F)(F)F)C(C)C)C(C)C)cc1 (stereo partly specified) | 2 | 32% | 55 nM | –
CC(C)C(NC(=O)C1CCCN1C(=O)[C@@H](NC(=O)c1ccc([N+](=O)[O-])cc1)C(C)C)C(=O)C(F)(F)F (stereo partly specified) | 54 | 4% | 1.2 nM | –
CC(C)[C@H](NC(=O)Nc1ccccc1)C(=O)N1CCC[C@H]1C(=O)N[C@H](C(=O)C(F)(F)F)C(C)C ({NHPh-CO}-Val-Pro-Val-CF3) | -2 | – | 2.6 nM | -184%
CC(C)[C@H](NS(=O)(=O)C(F)(F)F)C(=O)N1CCC[C@H]1C(=O)N[C@H](C(=O)C(F)(F)F)C(C)C | 20 | 17% | 150 nM | –
CC(C)[C@H](NC(=O)C(F)(F)F)C(=O)N1CCC[C@H]1C(=O)N[C@H](C(=O)C(F)(F)F)C(C)C (HELM PEPTIDE1{[O=C(C(F)(F)F)[*:2]].V.P.V.[FC(F)(F)[*:1]]}$$$$V2.0) | 67 | 91% | 15 nM | –
CC(C)[C@H](NC(=O)c1ccccn1)C(=O)N1CCC[C@H]1C(=O)N[C@H](C(=O)C(F)(F)F)C(C)C | 8 | 44% | 20 nM | –
CC(C)[C@H](NC(=O)Nc1ccc(F)cc1)C(=O)N1CCC[C@H]1C(=O)N[C@H](C(=O)C(F)(F)F)C(C)C | -3 | 8% | 11 nM | –
CC(C)C(NC(=O)C1CCCN1C(=O)[C@@H](NC(=O)c1ccc(S(C)(=O)=O)cc1)C(C)C)C(=O)C(F)(F)F (stereo partly specified) | -16 | 58% | 2 nM | –
CC(C)C(NC(=O)C1CCCN1C(=O)[C@@H](NC(=O)c1ccc(N(C)C)cc1)C(C)C)C(=O)C(F)(F)F (stereo partly specified) | 36 | 0% | 2.5 nM | –
CC(C)C(NC(=O)C1CCCN1C(=O)[C@@H](NC(=O)c1ccc(C(=O)NCCN(C)C)cc1)C(C)C)C(=O)C(F)(F)F (stereo partly specified) | 20 | 71% | 5.4 nM | –
CC(C)[C@H](NC(=O)C(=O)O)C(=O)N1CCC[C@H]1C(=O)N[C@H](C(=O)C(F)(F)F)C(C)C | 2 | 38% | 810 nM | –
CC(C)C(NC(=O)C1CCCN1C(=O)[C@@H](NS(=O)(=O)C12CC3CC(CC(C3)C1)C2)C(C)C)C(=O)C(F)(F)F (stereo partly specified) | -36 | 61% | 1.2 nM | –
CC(C)C(NC(=O)C1CCCN1C(=O)[C@@H](NC(=O)/C=C/c1ccc(C(=O)O)cc1)C(C)C)C(=O)C(F)(F)F (stereo partly specified) | 13 | 68% | 1.8 nM | –
